pKi: −log10 of the molar value. Numbered stars: 1 amine (or outer) side, 2 acyl side, 3 side chain; on linkers, the order of the positions; unused ones are H or OH. Square brackets hold non-standard residues; d marks the D form. Peptide text beside a SMILES is read from it. * marks the point of attachment. Heptanedioyl = O=C(CCCCCC(=O)[*:2])[*:1]; NMeNle = CCCC[C@H](NC)C(=O)O; Malonamoyl = NC(=O)CC(=O)*; Methoxyacetyl = COCC(=O)*; Isobutyryl = CC(C)C(=O)*; X3 = O=C(CS(=O)(=O)O)*; Boc = CC(C)(C)OC(=O)*; X2 = COC(=O)CC(=O)*; X4 = CC(=O)CC(=O)*; βAla = NCCC(=O)O
Target: Gastrin/cholecystokinin type B receptor (Cavia porcellus)
Assay: Binding affinity against cholecystokinin type B receptor on guinea pig cortex.

| Structure (SMILES) | pKi |
| --- | --- |
| CCCC[C@@H](C(=O)N[C@@H](CC(=O)O)C(=O)N[C@@H](Cc1ccccc1)C(N)=O)N(C)C(=O)[C@H](Cc1c[nH]c2ccccc12)NC(=O)CCCCCC(=O)O [6-[1-({1-[1-(1-Carbamoyl-2-phenyl-ethylcarbamoyl)-2-carboxy-ethylcarbamoyl]-pentyl}-methyl-carbamoyl)-2-(1H-indol-3-yl)-ethylcarbamoyl]-hexanoic acid] (Heptanedioyl-W[NMeNle]DF-NH2) | 6.00 |
| CCCC[C@@H](C(=O)N[C@@H](CC(=O)O)C(=O)N[C@@H](Cc1ccccc1)C(N)=O)N(C)C(=O)[C@H](Cc1c[nH]c2ccccc12)NC(=O)COC [N-(1-Carbamoyl-2-phenyl-ethyl)-3-(2-{[3-(1H-indol-3-yl)-2-(2-methoxy-acetylamino)-propionyl]-methyl-amino}-hexanoylamino)-succinamic acid] (Methoxyacetyl-W[NMeNle]DF-NH2) | 8.60 |
| CCCC[C@@H](C(=O)N[C@@H](CC(=O)O)C(=O)N[C@@H](Cc1ccccc1)C(N)=O)N(C)C(=O)[C@H](Cc1c[nH]c2ccccc12)NC(=O)CCNC(=O)OC(C)(C)C [3-(2-{[2-(3-tert-Butoxycarbonylamino-propionylamino)-3-(1H-indol-3-yl)-propionyl]-methyl-amino}-hexanoylamino)-N-(1-carbamoyl-2-phenyl-ethyl)-succinamic acid] ({Boc-βAla}-W[NMeNle]DF-NH2) | 8.87 |
| CCCC[C@@H](C(=O)N[C@@H](CC(=O)O)C(=O)N[C@@H](Cc1ccccc1)C(N)=O)N(C)C(=O)[C@H](Cc1c[nH]c2ccccc12)NC(=O)C(C)C [N-(1-Carbamoyl-2-phenyl-ethyl)-3-(2-{[3-(1H-indol-3-yl)-2-isobutyrylamino-propionyl]-methyl-amino}-hexanoylamino)-succinamic acid] (Isobutyryl-W[NMeNle]DF-NH2) | 8.86 |
| CCCC[C@@H](C(=O)N[C@@H](CC(=O)O)C(=O)N[C@@H](Cc1ccccc1)C(N)=O)N(C)C(=O)[C@H](Cc1c[nH]c2ccccc12)NC(=O)CC(N)=O [3-(2-{[2-(2-Carbamoyl-acetylamino)-3-(1H-indol-3-yl)-propionyl]-methyl-amino}-hexanoylamino)-N-(1-carbamoyl-2-phenyl-ethyl)-succinamic acid] (Malonamoyl-W[NMeNle]DF-NH2) | 8.69 |
| CCCC[C@@H](C(=O)N[C@@H](CC(=O)O)C(=O)N[C@@H](Cc1ccccc1)C(N)=O)N(C)C(=O)[C@H](Cc1c[nH]c2ccccc12)NC(=O)CC(C)=O [N-(1-Carbamoyl-2-phenyl-ethyl)-3-(2-{[3-(1H-indol-3-yl)-2-(3-oxo-butyrylamino)-propionyl]-methyl-amino}-hexanoylamino)-succinamic acid] (X4-W[NMeNle]DF-NH2) | 8.42 |
| CCCC[C@@H](C(=O)N[C@@H](CC(=O)O)C(=O)N[C@@H](Cc1ccccc1)C(N)=O)N(C)C(=O)[C@H](Cc1c[nH]c2ccccc12)NC(=O)CC(=O)OC [N-(1-Carbamoyl-2-phenyl-ethyl)-3-(2-{[3-(1H-indol-3-yl)-2-(2-methoxycarbonyl-acetylamino)-propionyl]-methyl-amino}-hexanoylamino)-succinamic acid] (X2-W[NMeNle]DF-NH2) | 8.44 |
| CCCC[C@@H](C(=O)N[C@@H](CC(=O)O)C(=O)N[C@@H](Cc1ccccc1)C(N)=O)N(C)C(=O)[C@@H](N)Cc1c[nH]c2ccccc12 [3-(2-{[2-Amino-3-(1H-indol-3-yl)-propionyl]-methyl-amino}-hexanoylamino)-N-(1-carbamoyl-2-phenyl-ethyl)-succinamic acid] (H-W[NMeNle]DF-NH2) | 8.59 |
| CCCC[C@@H](C(=O)N[C@@H](CC(=O)O)C(=O)N[C@@H](Cc1ccccc1)C(N)=O)N(C)C(=O)[C@H](Cc1c[nH]c2ccccc12)NC(=O)CCN [3-(2-{[2-(3-Amino-propionylamino)-3-(1H-indol-3-yl)-propionyl]-methyl-amino}-hexanoylamino)-N-(1-carbamoyl-2-phenyl-ethyl)-succinamic acid] (H-[βAla]W[NMeNle]DF-NH2) | 7.02 |
| CCCC[C@@H](C(=O)N[C@@H](CC(=O)O)C(=O)N[C@@H](Cc1ccccc1)C(N)=O)N(C)C(=O)[C@H](Cc1c[nH]c2ccccc12)NC(=O)CS(=O)(=O)O [N-(1-Carbamoyl-2-phenyl-ethyl)-3-(2-{[3-(1H-indol-3-yl)-2-(2-sulfo-acetylamino)-propionyl]-methyl-amino}-hexanoylamino)-succinamic acid] (X3-W[NMeNle]DF-NH2) | 9.27 |
| CCCC[C@@H](C(=O)N[C@@H](CC(=O)O)C(=O)N[C@@H](Cc1ccccc1)C(N)=O)N(C)C(=O)[C@H](Cc1c[nH]c2ccccc12)NC(=O)[C@H](C)N [3-(2-{[2-(2-Amino-propionylamino)-3-(1H-indol-3-yl)-propionyl]-methyl-amino}-hexanoylamino)-N-(1-carbamoyl-2-phenyl-ethyl)-succinamic acid] | 7.70 |
